# pIC50: −log10 of the molar value.
# Tested on: 171881-019-R-J1-PDC tumor spheroid viability
# Assay: Anticancer human tumor 171881-019-R-J1-PDC patient-derived invasive breast carcinoma cell line growth inhibition [PI3K]
# Conditions: spheroids with HUVEC and MSC; for pIC50: curve of first compound; for viability, T/C: stronger effect = lower value
# Summary of the method: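 Spheroid viability read-out. Co-cultures contained the tumor line plus HUVEC and human MSCs. Each agent was paired with a PI3K inhibitor (inavolisib, alpelisib, duvelisib, copanlisib) across half-log dilutions starting at clinical Cmax, or at 10 microM when Cmax was unknown.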
# [1] = second compound 0.00316 µM, first compound 0.0316 µM
# [2] = second compound 0.00316 µM, first compound 0.1 µM
# [3] = second compound 0.00316 µM, first compound 0.316 µM
# [4] = second compound 0.00316 µM, first compound 1 µM
# [5] = second compound 0.00316 µM, first compound 3.16 µM
# [6] = second compound 0.00316 µM, first compound 10 µM
# [7] = second compound 0.01 µM, first compound 0.0316 µM
# [8] = second compound 0.01 µM, first compound 0.1 µM
# [9] = second compound 0.01 µM, first compound 0.316 µM
# [10] = second compound 0.01 µM, first compound 1 µM
# [11] = second compound 0.01 µM, first compound 3.16 µM
# [12] = second compound 0.01 µM, first compound 10 µM
# [13] = second compound 0.0316 µM, first compound 0.0316 µM
# [14] = second compound 0.0316 µM, first compound 0.1 µM
# [15] = second compound 0.0316 µM, first compound 0.316 µM
# [16] = second compound 0.0316 µM, first compound 1 µM
# [17] = second compound 0.0316 µM, first compound 3.16 µM
# [18] = second compound 0.0316 µM, first compound 10 µM
# [19] = second compound 0.1 µM, first compound 0.0316 µM
# [20] = second compound 0.1 µM, first compound 0.1 µM
# [21] = second compound 0.1 µM, first compound 0.316 µM
# [22] = second compound 0.1 µM, first compound 1 µM
# [23] = second compound 0.1 µM, first compound 3.16 µM
# [24] = second compound 0.1 µM, first compound 10 µM
# [25] = second compound 0.316 µM, first compound 0.0316 µM
# [26] = second compound 0.316 µM, first compound 0.1 µM
# [27] = second compound 0.316 µM, first compound 0.316 µM
# [28] = second compound 0.316 µM, first compound 1 µM
# [29] = second compound 0.316 µM, first compound 3.16 µM
# [30] = second compound 0.316 µM, first compound 10 µM
# [31] = second compound 1 µM, first compound 0.0316 µM
# [32] = second compound 1 µM, first compound 0.1 µM
# [33] = second compound 1 µM, first compound 0.316 µM
# [34] = second compound 1 µM, first compound 1 µM
# [35] = second compound 1 µM, first compound 3.16 µM
# [36] = second compound 1 µM, first compound 10 µM
# 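Further: spheroids exposed to compound for 7 days before viability read.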
# 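Wherever viability, T/C is given: 100% = DMSO vehicle-treated spheroids.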
structure (smiles),measurement,setting,value
CC(C)NCC(C(=O)N1CCN(c2ncnc3c2C(C)CC3O)CC1)c1ccc(Cl)cc1 (stereo unspecified) + CC(Nc1ccc2c(c1)OCCn1cc(N3C(=O)OCC3C(F)F)nc1-2)C(N)=O,pIC50,second compound 0.00316 µM,6.52
same,pIC50,second compound 0.01 µM,6.56
same,pIC50,second compound 0.0316 µM,7.18
same,pIC50,second compound 0.1 µM,> 7.50
same,pIC50,second compound 0.316 µM,> 7.50
same,pIC50,second compound 1 µM,> 7.50
same,"viability, T/C",[1],84%
same,"viability, T/C",[2],70%
same,"viability, T/C",[3],50.4%
same,"viability, T/C",[4],26.5%
same,"viability, T/C",[5],13.8%
same,"viability, T/C",[6],9.57%
same,"viability, T/C",[7],64.8%
same,"viability, T/C",[8],69%
same,"viability, T/C",[9],45.6%
same,"viability, T/C",[10],24.4%
same,"viability, T/C",[11],13.4%
same,"viability, T/C",[12],9.59%
same,"viability, T/C",[13],52%
same,"viability, T/C",[14],48.9%
same,"viability, T/C",[15],38.6%
same,"viability, T/C",[16],22.3%
same,"viability, T/C",[17],12.2%
same,"viability, T/C",[18],8.08%
same,"viability, T/C",[19],35.4%
same,"viability, T/C",[20],35.5%
same,"viability, T/C",[21],31.3%
same,"viability, T/C",[22],19.5%
same,"viability, T/C",[23],11.7%
same,"viability, T/C",[24],7.31%
same,"viability, T/C",[25],27.1%
same,"viability, T/C",[26],23.8%
same,"viability, T/C",[27],23.5%
same,"viability, T/C",[28],16.4%
same,"viability, T/C",[29],10.8%
same,"viability, T/C",[30],7.4%
same,"viability, T/C",[31],20.5%
same,"viability, T/C",[32],20%
same,"viability, T/C",[33],19.1%
same,"viability, T/C",[34],13.5%
same,"viability, T/C",[35],9.24%
same,"viability, T/C",[36],7.07%
CCN1CCN(Cc2ccc(Nc3ncc(F)c(-c4cc(F)c5nc(C)n(C(C)C)c5c4)n3)nc2)CC1 + CC(Nc1ccc2c(c1)OCCn1cc(N3C(=O)OCC3C(F)F)nc1-2)C(N)=O,pIC50,second compound 0.00316 µM,< 6.00
same,pIC50,second compound 0.01 µM,< 6.00
same,pIC50,second compound 0.0316 µM,< 6.00
same,pIC50,second compound 0.1 µM,> 8.50
same,pIC50,second compound 0.316 µM,> 8.50
same,pIC50,second compound 1 µM,> 8.50
same,"viability, T/C","second compound 0.00316 µM, first compound 0.00316 µM",87%
same,"viability, T/C","second compound 0.00316 µM, first compound 0.01 µM",95.7%
same,"viability, T/C",[1],108%
same,"viability, T/C",[2],106%
same,"viability, T/C",[3],120%
same,"viability, T/C",[4],122%
same,"viability, T/C","second compound 0.01 µM, first compound 0.00316 µM",82.5%
same,"viability, T/C","second compound 0.01 µM, first compound 0.01 µM",77.5%
same,"viability, T/C",[7],85.9%
same,"viability, T/C",[8],84.9%
same,"viability, T/C",[9],95.7%
same,"viability, T/C",[10],109%
same,"viability, T/C","second compound 0.0316 µM, first compound 0.00316 µM",58%
same,"viability, T/C","second compound 0.0316 µM, first compound 0.01 µM",57.3%
same,"viability, T/C",[13],63.9%
same,"viability, T/C",[14],64.5%
same,"viability, T/C",[15],80.8%
same,"viability, T/C",[16],80.1%
same,"viability, T/C","second compound 0.1 µM, first compound 0.00316 µM",40%
same,"viability, T/C","second compound 0.1 µM, first compound 0.01 µM",38.3%
same,"viability, T/C",[19],47.2%
same,"viability, T/C",[20],48.2%
same,"viability, T/C",[21],63%
same,"viability, T/C",[22],70.2%
same,"viability, T/C","second compound 0.316 µM, first compound 0.00316 µM",27.6%
same,"viability, T/C","second compound 0.316 µM, first compound 0.01 µM",24.9%
same,"viability, T/C",[25],33.1%
same,"viability, T/C",[26],39.4%
same,"viability, T/C",[27],46.4%
same,"viability, T/C",[28],55.6%
same,"viability, T/C","second compound 1 µM, first compound 0.00316 µM",23.1%
same,"viability, T/C","second compound 1 µM, first compound 0.01 µM",20.7%
same,"viability, T/C",[31],26.6%
same,"viability, T/C",[32],28.5%
same,"viability, T/C",[33],36.4%
same,"viability, T/C",[34],50.1%
Cn1ncc(Cl)c1-c1cc(C(=O)NC(CN)Cc2cccc(F)c2)sc1Cl (stereo unspecified) + CC(Nc1ccc2c(c1)OCCn1cc(N3C(=O)OCC3C(F)F)nc1-2)C(N)=O,pIC50,second compound 0.00316 µM,6.83
same,pIC50,second compound 0.01 µM,6.87
same,pIC50,second compound 0.0316 µM,7.27
same,pIC50,second compound 0.1 µM,> 7.50
same,pIC50,second compound 0.316 µM,> 7.50
same,pIC50,second compound 1 µM,> 7.50
same,"viability, T/C",[1],70%
same,"viability, T/C",[2],59.1%
same,"viability, T/C",[3],34.8%
same,"viability, T/C",[4],21.2%
same,"viability, T/C",[5],12.9%
same,"viability, T/C",[6],4.9%
same,"viability, T/C",[7],64.1%
same,"viability, T/C",[8],58.1%
same,"viability, T/C",[9],31.4%
same,"viability, T/C",[10],17.3%
same,"viability, T/C",[11],12.5%
same,"viability, T/C",[12],4.16%
same,"viability, T/C",[13],53.6%
same,"viability, T/C",[14],46.4%
same,"viability, T/C",[15],29.3%
same,"viability, T/C",[16],15.6%
same,"viability, T/C",[17],11.4%
same,"viability, T/C",[18],4.17%
same,"viability, T/C",[19],40.4%
same,"viability, T/C",[20],33.5%
same,"viability, T/C",[21],24.6%
same,"viability, T/C",[22],15.1%
same,"viability, T/C",[23],10.2%
same,"viability, T/C",[24],4.94%
same,"viability, T/C",[25],27.2%
same,"viability, T/C",[26],26.3%
same,"viability, T/C",[27],18.1%
same,"viability, T/C",[28],14.6%
same,"viability, T/C",[29],9.75%
same,"viability, T/C",[30],4.08%
same,"viability, T/C",[31],20.2%
same,"viability, T/C",[32],18.1%
same,"viability, T/C",[33],16.4%
same,"viability, T/C",[34],12.9%
same,"viability, T/C",[35],8.94%
same,"viability, T/C",[36],3.85%
